Measured values published in ChEMBL document CHEMBL4350953, “Inhibitor of Apoptosis Protein (IAP) Antagonists in Anticancer Agent Discovery: Current Status and Perspectives” (J Med Chem, 2019).

Experiments:
[1] = target: T1, E3 ubiquitin-protein ligase XIAP (Homo sapiens, UniProt P98170); assay: Binding affinity to XIAP-BIR3 domain (241 to 356 residues) (unknown origin) by fluorescence polarization-based competition assay
Caspase-9 = target: T2, Caspase-9 (Homo sapiens, UniProt P55211); assay: Inhibition of N-terminal CARD domain of caspase 9 (unknown origin)
T2 sequence (P55211 whole entry): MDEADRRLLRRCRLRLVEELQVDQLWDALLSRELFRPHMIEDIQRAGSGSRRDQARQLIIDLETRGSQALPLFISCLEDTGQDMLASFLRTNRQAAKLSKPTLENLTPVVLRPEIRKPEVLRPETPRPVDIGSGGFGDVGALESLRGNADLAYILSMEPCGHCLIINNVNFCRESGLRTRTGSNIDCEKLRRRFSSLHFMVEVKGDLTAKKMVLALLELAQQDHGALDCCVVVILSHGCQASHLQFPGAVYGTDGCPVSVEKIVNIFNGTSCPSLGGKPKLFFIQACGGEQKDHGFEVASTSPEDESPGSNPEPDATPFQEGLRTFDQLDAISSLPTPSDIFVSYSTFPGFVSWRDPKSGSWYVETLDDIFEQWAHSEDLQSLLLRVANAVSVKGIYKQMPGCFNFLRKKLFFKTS

MDA-MB-231 [2] = assay: Cytotoxicity against human MDA-MB-231 cells assessed as reduction in cell viability
MDA-MB-231 [3] = assay: Growth inhibition of human MDA-MB-231 cells; format: functional
[4] = target: T3, Baculoviral IAP repeat-containing protein 2 (Homo sapiens, UniProt Q13490); assay: Induction of cIAP1 (unknown origin) degradation
[5] = target: T3, Baculoviral IAP repeat-containing protein 2; assay: Binding affinity to cIAP1-BIR3 domain (unknown origin)
HL-60 = assay: Cytotoxicity against human HL60 cells assessed as reduction in cell viability; format: functional, cell-based
[6] = target: T1, E3 ubiquitin-protein ligase XIAP; assay: Binding affinity to XIAP-BIR2/BIR3 domain (unknown origin)
[7] = target: Baculoviral IAP repeat-containing protein 3 (Homo sapiens, UniProt Q13489); assay: Binding affinity to cIAP2-BIR3 domain (unknown origin)
[8] = target: T1, E3 ubiquitin-protein ligase XIAP; assay: Binding affinity to XIAP-BIR2 domain (unknown origin) by fluorescence polarization-based competition assay

T3 sequence (Q13490 whole entry, the tested form may be a part): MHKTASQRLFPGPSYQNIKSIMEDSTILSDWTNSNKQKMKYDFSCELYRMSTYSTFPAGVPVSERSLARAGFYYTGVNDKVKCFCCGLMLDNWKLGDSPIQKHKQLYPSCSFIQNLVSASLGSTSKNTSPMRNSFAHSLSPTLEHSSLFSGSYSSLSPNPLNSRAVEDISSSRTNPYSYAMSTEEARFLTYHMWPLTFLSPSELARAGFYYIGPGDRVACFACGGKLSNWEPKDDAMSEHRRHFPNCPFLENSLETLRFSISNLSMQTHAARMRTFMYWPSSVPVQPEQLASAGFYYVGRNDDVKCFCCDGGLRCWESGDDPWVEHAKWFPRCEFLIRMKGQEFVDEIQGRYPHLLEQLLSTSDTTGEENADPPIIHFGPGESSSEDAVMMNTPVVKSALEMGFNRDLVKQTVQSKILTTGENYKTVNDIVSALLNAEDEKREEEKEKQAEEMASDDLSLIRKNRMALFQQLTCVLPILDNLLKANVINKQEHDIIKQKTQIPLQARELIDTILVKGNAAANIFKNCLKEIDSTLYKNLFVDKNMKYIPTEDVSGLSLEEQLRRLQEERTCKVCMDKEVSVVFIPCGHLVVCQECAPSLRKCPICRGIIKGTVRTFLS
T1 sequence (P98170 whole entry, the tested form may be a part): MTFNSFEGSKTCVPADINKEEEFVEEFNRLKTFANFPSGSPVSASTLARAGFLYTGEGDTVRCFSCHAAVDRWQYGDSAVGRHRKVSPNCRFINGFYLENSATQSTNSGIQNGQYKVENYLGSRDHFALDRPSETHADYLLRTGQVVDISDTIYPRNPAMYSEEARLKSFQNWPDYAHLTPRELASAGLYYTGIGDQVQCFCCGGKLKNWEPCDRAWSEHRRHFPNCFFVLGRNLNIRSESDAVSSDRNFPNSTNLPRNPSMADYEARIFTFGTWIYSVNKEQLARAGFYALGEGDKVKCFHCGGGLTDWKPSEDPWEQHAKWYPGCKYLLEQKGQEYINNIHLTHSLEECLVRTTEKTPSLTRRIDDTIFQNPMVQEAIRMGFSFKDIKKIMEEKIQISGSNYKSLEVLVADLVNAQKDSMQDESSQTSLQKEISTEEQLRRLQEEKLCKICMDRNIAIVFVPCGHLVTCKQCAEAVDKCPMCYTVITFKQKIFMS
Baculoviral IAP repeat-containing protein 3, sequence (Q13489 whole entry, the tested form may be a part): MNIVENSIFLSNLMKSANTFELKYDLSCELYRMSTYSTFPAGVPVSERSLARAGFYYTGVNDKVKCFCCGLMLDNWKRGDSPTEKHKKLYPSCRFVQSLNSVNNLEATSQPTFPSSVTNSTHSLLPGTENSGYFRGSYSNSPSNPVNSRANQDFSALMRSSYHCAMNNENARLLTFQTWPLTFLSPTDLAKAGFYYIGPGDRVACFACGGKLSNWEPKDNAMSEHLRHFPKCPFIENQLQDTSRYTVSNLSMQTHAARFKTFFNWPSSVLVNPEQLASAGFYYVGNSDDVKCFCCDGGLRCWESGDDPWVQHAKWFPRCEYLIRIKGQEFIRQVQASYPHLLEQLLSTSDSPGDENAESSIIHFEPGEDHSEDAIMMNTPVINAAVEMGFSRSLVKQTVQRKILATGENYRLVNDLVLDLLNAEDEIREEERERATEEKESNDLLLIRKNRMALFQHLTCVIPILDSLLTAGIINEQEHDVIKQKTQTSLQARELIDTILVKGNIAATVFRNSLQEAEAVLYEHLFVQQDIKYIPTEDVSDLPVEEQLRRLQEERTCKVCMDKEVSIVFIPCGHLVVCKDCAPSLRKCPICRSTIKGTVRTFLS

## CN[C@@H](C)C(=O)N[C@H](C(=O)N1CCC[C@H]1C(=O)N[C@H]1CCc2ccccc21)C(C)(C)C
[1]
  Kd: 29 nM

## CN[C@@H](C)C(=O)N[C@H](C(=O)N1CCC[C@H]1C(=O)N[C@H]1CCCc2ccccc21)C(C)(C)C
Caspase-9
  EC50: 290 nM
MDA-MB-231 [2]
  IC50: 68 nM

## CN[C@@H](C)C(=O)N[C@H](C(=O)N1CCC[C@H]1C(=O)N[C@H]1c2ccccc2C[C@H]1OCC#CC#CCO[C@@H]1Cc2ccccc2[C@@H]1NC(=O)[C@@H]1CCCN1C(=O)[C@@H](NC(=O)[C@H](C)NC)C(C)(C)C)C(C)(C)C
MDA-MB-231 [3]
  GI50: < 0.06 nM
[4]
  EC50: 0.1 nM
[5]
  IC50: 15 nM

## CN[C@@H](C)C(=O)N[C@@H](CNC(=O)c1ccc(S(=O)(=O)F)cc1)C(=O)N1CCC[C@@H]1c1cncc(Cc2ccc(F)cc2)n1
[5]
  IC50: > 200 nM

## CN[C@@H](C)C(=O)N[C@H](C(=O)N1CCC[C@H]1C(=O)N[C@H]1CCCc2ccccc21)C1CCCCC1
Caspase-9
  EC50: 310 nM
MDA-MB-231 [2]
  IC50: 13 nM

## CC[C@H](NC)C(=O)N[C@H](C(=O)N1C[C@H]2Cc3cc(Cl)ccc3N2C[C@H]1C(=O)N[C@H]1CCOc2ccccc21)C1CCCCC1
MDA-MB-231 [3]
  GI50: 15 nM

## CN[C@@H](C)C(=O)N[C@H](C(=O)N1CC[C@@H](Oc2ccccc2)[C@H]1C(=O)N[C@H]1CCCc2ccccc21)C(C)(C)C
Caspase-9
  EC50: 240 nM

## CCO[C@@H]1C[C@@H]2CN(C(=O)[C@@H](NC(=O)[C@H](C)NC)C3CCC(F)(F)CC3)[C@H](C(=O)N[C@H]3CCOc4ccccc43)CN2C1
MDA-MB-231 [3]
  GI50: 1.8 nM
[5]
  Kd: 1.3 nM

## CN[C@@H](C)C(=O)NC1CCCC[C@H]2CC[C@@H](C(=O)N[C@@H](c3ccccc3)c3cn(CCCCc4ccc(CCCCn5cc([C@@H](NC(=O)[C@@H]6CC[C@@H]7CCCC[C@H](NC(=O)[C@H](C)NC)C(=O)N76)c6ccccc6)nn5)cc4)nn3)N2C1=O (stereo not given in full)
HL-60
  IC50: 1 nM

## CN[C@@H](C)C(=O)N[C@H]1CCCC[C@H]2CC[C@@H](C(=O)N[C@@H](c3ccccc3)c3cn(Cc4ccccc4)nn3)N2C1=O
HL-60
  IC50: 2000 nM
[6]
  IC50: 376 nM

## CN[C@@H](C)C(=O)N[C@H]1CCCC[C@H]2CC[C@@H](C(=O)NC(c3ccccc3)c3ccccc3)N2C1=O
HL-60
  IC50: 1400 nM

## CC[C@H](NC(=O)[C@H](C)NC)C(=O)N1C[C@@H](O)C[C@H]1Cc1c(-c2[nH]c3cc(F)ccc3c2C[C@@H]2C[C@H](O)CN2C(=O)[C@H](CC)NC(=O)[C@H](C)NC)[nH]c2cc(F)ccc12 [BIRINAPANT]
[7]
  Kd: 36 nM

## CN[C@@H](C)C(=O)N[C@H](C(=O)N1CCC[C@H]1C(=O)Nc1snnc1-c1ccccc1)C1CCCCC1 [GDC-0152]
[8]
  Kd: 112 nM
[1]
  Kd: 28 nM
